Source: patent US9782394B2, “Inhibitors for ERG oncogene positive cancers” (The Henry M. Jackson Foundation for the Advancement of …, priority 2014, dated 2017)
Blank lines part the entries; values can stand above or below the compound they belong to.

What was measured:
VCaP cells = experiment: Cell growth inhibition, VCaP; assay type: cell-based; conditions: for inhibition of cell growth: VCaP cells in culture, 1 μM and 10 μM
Method: (§1) 48 hours following plating of cells, the appropriate test compound is added to each well of the tissue culture dish at a predetermined concentration. The medium was replenished every 24 hours with fresh growth medium containing the same concentration of the same test compound for indicated period of the cell growth inhibition assay. Percent cell growth inhibition was calculated using a hemocytometer for estimating cell density in each of the test wells of the tissue culture dish and trypan blue dye exclusion microscopy and photography to estimate the fraction of viable cells in each test well.
(§2) The protein inhibition studies described above indicate that ERGi-USU is a selective inhibitor of ERG expression. To investigate whether ERGi-USU selectively arrested the growth of ERG positive cancer cells without arresting the growth of ERG negative cancer cells, a cell growth inhibition study was carried out using the following cancer and normal cell lines: ERG positive cancer cells (VCaP, COLO320, MOLT-4 and KG-1) cancer cells, ERG negative cancer cells (LNCaP, MDA PCa2b and LAPC4) cancer cells, normal prostate RWPE-1 and BPH-1 cells and normal endothelial HUVEC cells. Each cell line was cultured to achieve cells in logarithmic growth and these cells were then plated in 10 cm wells of a tissue culture dishes at a cell density of 2×10^6 cells per well. The plated cells were contacted with 0, 0.1, 0.5, 1.0, 5.0, and 10 μM concentrations of ERGi-USU for a period of 2, 4, 6 and 8 days. At the end of each time period, cells are recovered from the test plate, washed and the cell density and viability determined using a hemocytometer and trypan blue dye staining method. Cell growth inhibition was expressed as a graph correlating cell number to the concentration of ERGi-USU.
(§3) FIG. 4 illustrates the results of cell growth inhibition studies that were used to calculate the concentration of ERGi-USU needed for inhibiting 50% of the growth (IC50) of the cells mentioned above. As illustrated by this figure, ERGi-USU was a potent inhibitor of the growth of ERG positive cancer cells in culture.

LNCaP cells = experiment: Cell growth inhibition, LNCaP; assay type: cell-based; conditions: for inhibition of cell growth: ERG negative LNCaP cells, 1 μM and 10 μM
Method: as §1, §2, §3

ERG mRNA = experiment: Quantitative RT-PCR analysis of ERG transcripts in VCaP cells; assay type: cell-based, human; conditions: 1 μM, 24 hours
Method: The ERG inhibitors identified by the primary screen were used in a quantitative RT-PCR assay to evaluate their ability to inhibit ERG mRNA expression. Briefly, VCaP cells were treated at a concentration of 1 μM with each of the ten compounds for 24 hours. Following incubation with the test compounds the cells are lysed and the total RNA isolated. 200 ng of the total RNA was used for analysis of ERG transcripts by qRT-PCR using a pair of ERG primers specific for the coding sequence of tERG for analysis.

BPH-1 cells = experiment: Cell growth inhibition, BPH-1; assay type: cell-based; conditions: Homo sapiens; BPH-1, normal prostate; read-out: Cell growth inhibition (ERGi-USU: IC50)
Method: as §1
(§4) The protein inhibition studies described above indicate that ERGi-USU is a selective inhibitor of ERG expression. […] At the end of each time period, cells are recovered from the test plate, washed and the cell density and viability determined using a hemocytometer and trypan blue dye staining method. Cell growth inhibition was expressed as a graph correlating cell number to the concentration of ERGi-USU. […]

MOLT-4 cells = experiment: Cell growth inhibition, MOLT-4; assay type: cell-based; conditions: Homo sapiens; MOLT-4, ERG positive acute lymphoblastic leukemia; read-out: Cell growth inhibition (ERGi-USU: IC50)
Method: as §1, §4

ERG protein = biological target: T1, ERG protein (Homo sapiens, UniProt P11308); experiment: In-cell Western primary screen for inhibitors of ERG expression in VCaP cells; assay type: cell-based; conditions: single 1 μM dose, 48 hours, duplicate screen
T1 construct: contacting a TMPRSS2-ERG fusion positive prostate cancer (VCaP) cell line with a fixed concentration of each compound; host or cells: VCaP
T1 sequence (P11308 33-479 limits assumed): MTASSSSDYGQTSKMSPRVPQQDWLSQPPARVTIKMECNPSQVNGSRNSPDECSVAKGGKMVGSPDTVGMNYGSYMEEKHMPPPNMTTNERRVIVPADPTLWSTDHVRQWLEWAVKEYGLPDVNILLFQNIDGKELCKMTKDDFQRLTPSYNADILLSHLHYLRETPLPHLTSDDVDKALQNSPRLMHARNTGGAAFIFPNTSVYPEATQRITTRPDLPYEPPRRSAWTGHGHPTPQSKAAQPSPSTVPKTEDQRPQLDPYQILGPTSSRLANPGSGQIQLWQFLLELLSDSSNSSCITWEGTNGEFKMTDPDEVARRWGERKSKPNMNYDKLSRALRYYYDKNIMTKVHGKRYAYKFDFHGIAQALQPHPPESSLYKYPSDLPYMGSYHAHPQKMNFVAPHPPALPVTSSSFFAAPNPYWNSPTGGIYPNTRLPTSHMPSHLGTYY
Source text: To identify ERG specific small molecule inhibitors, the present inventors screened a library of small molecule compounds, by contacting a TMPRSS2-ERG fusion positive prostate cancer (VCaP) cell line with a fixed concentration of each compound in the small molecule library. ERG protein expression was monitored using an In-cell Western blot assay (LI-COR Biosciences, Lincoln, Nebr.), using a highly specific ERG monoclonal antibody (CPDR ERG-mAb; 9FY) for detection. See Furusato et al., Prostate Cancer Prostatic Dis., 13:228-372 (2010); Mohamed et al., J. Cancer, 1:197-208, (2010); Miettinen et al., Am. J. Surg Pathol., 35:432-41 (2011); and U.S. patent publication No. 2012/0135018A1.
The TMPRSS2-ERG fusion positive prostate cancer cell line, VCaP (ATCC), was used to identify small molecule inhibitors of ERG expression. […] The inhibition of ERG expression was evaluated by an In-cell Western blot assay (LI-COR Biosciences, Lincoln, Nebr.) using the ERG specific CPDR ERG-MAb as further described below. […]
Inhibition of ERG expression by the test compounds was determined by an In-cell Western assay (LI-COR Biosciences, Lincoln, Nebr.). […]
The tissue culture plates were imaged on a Li-Cor Odyssey Infrared Imaging System and infrared signals were measured to provide values for ERG expression and cell number via DNA staining. […]

AR = experiment: Western blot analysis of AR expression in prostate cancer cells; assay type: cell-based; conditions: 0.1-10 μM
Method: (§5) Cultured cells were treated at specific dosages with each of the test ERG inhibitors. Following incubation of the treated cells for indicated time period, cells were lysed using Mammalian Protein Extraction Reagent (M-PER; Pierce, Rockford, Ill.) containing a protease inhibitor cocktail and phosphatase inhibitor cocktails I & III (Sigma, St Louis, Mo.). Cell lysates containing 50 μg of total protein were electrophoresed through 4-12% Bis-Tris Gel (Invitrogen, Carlsbad, Calif.) and the cellular proteins were transferred to PVDF membrane (Invitrogen, Carlsbad, Calif.). Membranes were incubated at 4° C. for 12 hours with primary antibodies for AR, PSA, GAPDH, α-Tubulin, apoptosis markers and cell cycle regulators. Following exposure to primary antibodies, the membranes were washed with buffer (three times, 5 minutes each at room temperature) followed by incubation with relevant secondary antibodies for 1 hour at 24° C. Finally, the membranes were washed with buffer and developed using the ECL Western blot detection reagent (GE Health Care, Buckinghamshire, UK).
(§6) Briefly, ERG positive VCaP cells and ERG negative LNCaP, MDA PCa2b and LAPC4 cells in logarithmic growth were plated in 10 cm tissue culture dish at a cell density of 2×10^6 cells per dish. The plated cells were contacted with 0, 0.1, 0.5, 1.0, 5.0, and 10 μM concentrations of ERGi-USU for a period of 48 hours. Cells from each dish were then processed for Western blot analysis and alterations in the expression of ERG protein were monitored.

KG-1 cells = experiment: Cell growth inhibition, KG-1; assay type: cell-based; conditions: Homo sapiens; KG-1, ERG positive myeloid leukemia; read-out: Cell growth inhibition (ERGi-USU: IC50)
Method: as §1, §4

MDA PCa2b cells = experiment: Cell growth inhibition, MDA PCa2b; assay type: cell-based; conditions: MDA-PCa-2b, ERG negative prostate cancer, read-out: Cell growth inhibition (ERGi-USU: IC50)
Method: as §1, §4

HUVEC cells = experiment: Cell growth inhibition, HUVEC; assay type: cell-based; conditions: Homo sapiens, ERG positive normal endothelial, read-out: Cell growth inhibition (ERGi-USU: IC50)
Method: as §1, §4

LAPC4 cells = experiment: Cell growth inhibition, LAPC4; assay type: cell-based; conditions: Homo sapiens; LAPC4, ERG negative metastatic prostate cancer; read-out: Cell growth inhibition (ERGi-USU: IC50)
Method: as §1, §4

RWPE-1 cells = experiment: Cell growth inhibition, RWPE-1; assay type: cell-based; conditions: Homo sapiens; RWPE-1, normal prostate; read-out: Cell growth inhibition (ERGi-USU: IC50)
Method: as §1, §4

COLO320 cells = experiment: Cell growth inhibition, COLO320; assay type: cell-based; conditions: Homo sapiens, COLO 320; COLO320, ERG positive colon adenocarcinoma; read-out: Cell growth inhibition (ERGi-USU: IC50)
Method: as §1, §4

PSA = experiment: Western blot analysis of PSA expression in prostate cancer cells; assay type: cell-based; conditions: 0.1-10 μM
Method: as §5, §6

VCaP xenograft tumors = experiment: VCaP xenograft tumor growth inhibition in nude mice; assay type: in vivo; conditions: male nude mice, 150 mg/kg intraperitoneally 3 times per week, versus vehicle control and 100 mg/kg
Method: Male athymic nude mice 6-8 weeks old and weighing 27 to 30 g were purchased from Charles River Laboratories. ERG harboring prostate cancer cells (VCaP) were trypsinized and washed twice with ice-cold PBS, and resuspended in ice-cold 50% matrigel in serum-free DMEM medium. A total of 4×10^6 cells/0.1 ml/mouse were subcutaneously injected into lower right dorsal flank of the mice. Prior to injection, mice were anesthetized with inhalation anesthesia (isoflurane). Tumor growth was monitored weekly after injection. Three weeks later when tumors were palpable mice were randomly separated into 2 experimental groups and one control group of 7 mice in each group. In the treatment groups mice were injected intraperitoneally (I.P) with 100 mg/kg of ERGi-USU or 150 mg/kg of ERGi-USU while the control group were injected with vehicle (1:1 [v/v], DMSO/PEG300) only. Growth in tumor volume was recorded weekly by digital caliper measurements and tumor volumes calculated using the ½ (L×W^2) formula, where L=length of tumor and W=width. Tumor volumes were compared between treated and control groups with repeated measurements and statistical significance of the results between the groups computed using students t-test and p values calculated.
Male nude mice were injected with about 4×10^6 VCaP cells and tumor growth was monitored. […] Tumor growth was monitored weekly.

[1] = AR positive/ERG negative LNCaP, MDA PCa2b and LAPC4 cells, 48 hours

Compound: Oc1ccc2ccccc2c1/N=N/c1ccccn1 [ED-1]
inhibition of cell growth (VCaP cells): inhibited the growth of VCaP prostate cancer cells
inhibition of cell growth (LNCaP cells): no measurable inhibitory effect

Compound: Nc1c(O)ccc2ccccc12 [ED-2]
inhibition of cell growth (VCaP cells): inhibited the growth of VCaP prostate cancer cells
inhibition of cell growth (LNCaP cells): no measurable inhibitory effect

Compound: NC(c1ccccc1)c1c(O)ccc2ccccc12 (stereo not drawn) [ED-3]
inhibition of cell growth (VCaP cells): inhibited the growth of VCaP prostate cancer cells
inhibition of cell growth (LNCaP cells): no measurable inhibitory effect

inhibition of ERG mRNA expression (qRT-PCR) (ERG mRNA): inhibitors of ERG-mRNA expression
IC50 (MOLT-4 cells): 50 nM
inhibition of ERG protein expression (In-cell Western, normalized by cell number) (ERG protein): inhibitors of ERG protein expression
IC50 (VCaP cells; Homo sapiens, VCaP, ERG positive metastatic prostate cancer, read-out: Cell growth inhibition (ERGi-USU: IC50)): 300 nM
IC50 (LNCaP cells; Homo sapiens, LNCaP, ERG negative metastatic prostate cancer, read-out: Cell growth inhibition (ERGi-USU: IC50)): > 10000 nM
IC50 (COLO320 cells): 300 nM
Compound: Oc1ccc2ccccc2c1/N=N/c1nccs1 [ERGi-USU, 1-(thiazol-2-yldiazenyl)naphthalene-2-ol]
IC50 (BPH-1 cells): > 10000 nM
inhibition of AR protein expression (AR; [1]): does not inhibit
inhibition of AR protein expression (AR; VCaP cells): inhibits expression of PSA, and AR proteins
IC50 (KG-1 cells): 200 nM
IC50 (MDA PCa2b cells): > 10000 nM
IC50 (HUVEC cells): > 10000 nM
IC50 (LAPC4 cells): > 10000 nM
IC50 (RWPE-1 cells): > 10000 nM
inhibition of PSA protein expression (PSA; [1]): does not inhibit
inhibition of PSA protein expression (PSA; VCaP cells): inhibits expression of PSA, and AR proteins
tumor volume (VCaP xenograft tumors): exhibited the smallest volumes

inhibition of ERG mRNA expression (qRT-PCR) (ERG mRNA): inhibitors of ERG-mRNA expression
Compound: Cc1[nH]ccc2c1[nH]c1cc(=O)ccc12 [NSC72292]

inhibition of ERG mRNA expression (qRT-PCR) (ERG mRNA): inhibitors of ERG-mRNA expression
Compound: Oc1ccc2ccccc2c1/N=N/c1nccs1 [NSC99629, reference compound]
inhibition of AR protein expression (AR; VCaP cells): No appreciable inhibition
inhibition of PSA protein expression (PSA; VCaP cells): No appreciable inhibition
